From publication PMC12459020, “Chemical Probes that Target a Dissociative LuxR-Type Quorum Sensing Receptor in Gram-Negative Bacteria” (ACS Chemical Biology, 2025)
Entries after “also recorded” stand apart in the source; their conditions may differ. Read-outs that look alike come from different tables or passages of the source.

Legend:
LuxR = details: cited from earlier work; for LuxR antagonism: 5 µM compound against 5 µM OHHL, negative values indicate potential activators, ref 6 (SI; Palmer et al., 2011); for LuxR [%] (agonism, activation): compounds at 200 μM, luminescence in V. fischeri ES114 (ΔluxI), ref Palmer et al., 2011 (main ref 44, SI ref 6)
ExpR2 = details: cited from earlier work; for ExpR2 antagonism (percent inhibition): 5 µM compound against 5 µM OHHL, negative values indicate potential activators; for ExpR2 antagonism (percent inhibition) / IC50: ref 6 (SI; Palmer et al., 2011); for ExpR2 [%] (agonism, percent activation): compounds at 200 μM, cellulase activity in P. versatile AC5099, ref Palmer et al., 2011 (main ref 44, SI ref 6); for IC50: previously reported phenotypic reporter data
ExpR1 = details: cited from earlier work; for ExpR1 antagonism: 5 µM compound against 5 µM OHHL, negative values indicate potential activators, ref 6 (SI; Palmer et al., 2011); for ExpR1 [%] (agonism, activation): compounds at 200 μM, cellulase activity in P. versatile AC5117, ref Palmer et al., 2011 (main ref 44, SI ref 6)
EsaR [1] = target: T1, EsaR (Pantoea stewartii subsp. stewartii, UniProt P54293); assay: cell-based; details: for activation at 100 µM / inhibition at 100 µM: 3.5 h; for activation at 100 µM: read-out: EsaR-repressed (pesaR) [%] agonism; for inhibition at 100 µM: read-out: EsaR-repressed (pesaR) antagonism
T1 construct: expressed in transfected cells; host or cells: E. coli JLD271 (K12 ΔsdiA), arabinose-induced pJN105-esaR
Source text: (§1) EsaR transcriptional activation and repression were examined using E. coli and P. stewartii reporters (strains and plasmids listed in Table S1; see Methods section for assay details). […] We constructed reporters in E. coli based on previously reported EsaR reporters (Table S1). Each strain contained an EsaR expression plasmid (pJN105-esaR) and a reporter plasmid with either an EsaR-activated promoter (pesaS) or an EsaR-repressed promoter (pesaR) upstream of luxABCDE or GFP.
(§2) Gibson assembly was used to create all constructs. Plasmid pJN105-esaR was created by amplifying esaR from pAC-esaR and inserting it into pJN105. pesaSlux was created by inserting pesaS, amplified from pPesaR-AC:gfp, into the pCS-pesaRlux backbone. The pesaR promoter was amplified from pCS-pesaRlux and inserted into the pPesaR-AC:gfp backbone to create pesaR:GFP. P. stewartii reporter strains were created by transforming pesaR:GFP or pPesaR-AC:gfp into ESN51 by conjugation using E. coli S17 λpir as the donor strain. See SI for details of E. coli ExpR2 reporter construction.
(§3) Overnight cultures were diluted 1:10 in LB medium with appropriate antibiotics and grown at 37 °C (200 rpm) to an OD600 of 0.22–0.27 before induction with 4 mg mL^–1 arabinose. OD600 was measured by placing 200 μL of culture into a 96-well plate and reading optical density using the BioTek Synergy 2 plate reader. Assays were performed in technical triplicate in clear-bottom, white and clear-bottom, black 96-well microtiter plates (Corning Costar 3903 and 3904) for luminescence and fluorescence reporters, respectively. Compounds were dissolved in DMSO, and 2 μL of this stock, or DMSO as a negative control, was added to each well prior to adding 198 μL of induced culture. Plates were incubated at 37 °C (200 rpm) for 3.5 h. Each well was mixed by pipetting before reading OD600 and either luminescence or fluorescence. Single-point screens were performed with one or two biological replicates, and all dose–response curves were performed in biological triplicate. EC50 values were calculated based on a nonlinear regression of log(concentration) vs response (three parameters) using GraphPad Prism 9 software.

EsaR [2] = target: T1, EsaR; assay: cell-based; details: for activation at 100 µM / inhibition at 100 µM: 3.5 h; for activation at 100 µM: read-out: EsaR-activated (pesaS) [%] agonism; for inhibition at 100 µM: read-out: EsaR-activated (pesaS) antagonism; for EsaR agonism, in words / EsaR antagonism, in words: E. coli EsaR reporters; for EsaR agonism, in words: primary screen at 100 μM; for EsaR antagonism, in words: competed against OHHL at approx. EC50
Source text: as §1, §2, §3

T1 sequence (P54293 whole entry): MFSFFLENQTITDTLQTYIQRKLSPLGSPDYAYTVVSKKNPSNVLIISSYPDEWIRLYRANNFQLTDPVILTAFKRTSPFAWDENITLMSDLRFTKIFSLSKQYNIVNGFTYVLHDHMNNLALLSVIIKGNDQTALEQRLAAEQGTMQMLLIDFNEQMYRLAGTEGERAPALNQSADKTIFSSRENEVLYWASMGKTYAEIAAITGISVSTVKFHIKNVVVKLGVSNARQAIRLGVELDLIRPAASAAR

Row | SMILES | LuxR antagonism (LuxR) [%] | LuxR [%] (agonism, activation) (LuxR) | ExpR2 antagonism (percent inhibition) (ExpR2) [%] | ExpR2 [%] (agonism, percent activation) (ExpR2) | IC50 (ExpR2) [nM] | ExpR1 antagonism (ExpR1) [%] | ExpR1 [%] (agonism, activation) (ExpR1) | activation at 100 µM (EsaR [1]) [%] | inhibition at 100 µM (EsaR [1]) [%] | activation at 100 µM (EsaR [2]) [%] | inhibition at 100 µM (EsaR [2]) [%] | EsaR agonism, in words (EsaR [2]) | EsaR antagonism, in words (EsaR [2]) | EC50 (EsaR [1]) [nM] | EC50 (EsaR [2]) [nM] | EsaR antagonism, in words, EsaR-repressed promoter (EsaR [1]; E. coli reporter, competed against OHHL at approx. EC50)
1 | CCCCCCCCCC(=O)CC(=O)N[C@H]1CCOC1=O [OdDHL, 3-(oxo)-dodecanoyl HL, reference compound] | 86 | 2 | 73 | 17 | 750 | 85 | 2 | 26 | -10 | 34 | -45 | agonized EsaR | – | – | – | –
2 | CCCC(=O)NC1CCCC1 [RN4] | – | – | – | – | – | – | – | – | – | – | – | – | None of these compounds antagonized EsaR | – | – | –
3 | O=C(Cc1cccc2ccccc12)N[C@H]1CCOC1=O [E13] | 84 | 3 | -6 | 95 | – | 69 | 7 | 0.5 | -11 | -11 | -2 | – | – | – | – | –
4 | O=C(Cc1ccc(Cl)cc1)N[C@H]1CCOC1=O [C5, 4-Cl PHL] | 75 | 3 | 48 | 29 | – | 78 | 5 | 3 | 2 | -1 | -3 | nearly inactive | – | – | – | –
5 | O=C(NC1CCCC1)C1CCC1 [RN13] | – | – | – | – | – | – | – | – | – | – | – | moderate agonist | None of these compounds antagonized EsaR | – | – | –
6 | O=C(Cc1ccccc1Cl)N[C@H]1CCOC1=O [C7] | 53 | 6 | 41 | 28 | – | 57 | 9 | 5 | -26 | 10 | 1 | – | – | – | – | –
7 | CCCCCCCCCC(=O)NC1CCCC1 [C10-CPA, reference compound] | – | – | – | – | – | – | – | – | – | – | – | – | did not show antagonism; also recorded: None of these compounds antagonized EsaR | – | – | –
8 | CCCCCCCC(=O)N[C@H]1CCOC1=O [OHL, octanoyl HL, reference compound] | 86 | 25 | 38 | 79 | – | 78 | 19 | 91 | -40 | 98 | -95 | strongly activated; also recorded: agonized EsaR | – | – | – | –
9 | O=C(Cc1ccccc1)N[C@H]1CCOC1=O [C1] | 14 | 3 | 11 | 21 | – | 4 | 6 | 7 | -61 | 17 | -13 | – | – | – | – | –
10 | CCCCCCCC(=O)CC(=O)N[C@H]1CCOC1=O [ODHL, reference compound] | 47 | 2 | 33 | 48 | – | 42 | 6 | 37 | -94 | 65 | -69 | – | – | ≥ 101000 | ≥ 65000 | –
11 | O=C(Cc1cccc(Br)c1)N[C@H]1CCOC1=O [C8] | 68 | 70 | 59 | 97 | – | 73 | 63 | 30 | -65 | 55 | -43 | – | – | – | – | –
12 | CCCCCCCCCC(=O)N[C@H]1CCOC1=O [DHL, reference compound] | 96 | 12 | 76 | 44 | 900 | 91 | 6 | 4 | -59 | 17 | -11 | – | – | – | – | –
13 | CCCCCCCCCC(=O)CC(=O)Nc1ccccc1 [V-06–018, reference compound] | – | – | – | – | – | – | – | – | – | – | – | – | inactive as EsaR antagonists | – | – | inactive as EsaR antagonists
14 | CSc1cccc(CC(=O)N[C@H]2CCOC2=O)c1 [E7, 3-SCH3 PHL] | 88 | 4 | 71 | 13 | – | 79 | 0 | 11 | -3 | 23 | -26 | nearly inactive | – | – | – | –
